Results: ChEMBL document CHEMBL1155460, “Prediction of acetylcholinesterase inhibitors and characterization of correlative molecular descriptors by machine learning methods” (Eur J Med Chem, 2010)

What follows are molecules tested against Acetylcholinesterase (Homo sapiens, UniProt P22303).
Chain of Acetylcholinesterase (P22303 whole entry): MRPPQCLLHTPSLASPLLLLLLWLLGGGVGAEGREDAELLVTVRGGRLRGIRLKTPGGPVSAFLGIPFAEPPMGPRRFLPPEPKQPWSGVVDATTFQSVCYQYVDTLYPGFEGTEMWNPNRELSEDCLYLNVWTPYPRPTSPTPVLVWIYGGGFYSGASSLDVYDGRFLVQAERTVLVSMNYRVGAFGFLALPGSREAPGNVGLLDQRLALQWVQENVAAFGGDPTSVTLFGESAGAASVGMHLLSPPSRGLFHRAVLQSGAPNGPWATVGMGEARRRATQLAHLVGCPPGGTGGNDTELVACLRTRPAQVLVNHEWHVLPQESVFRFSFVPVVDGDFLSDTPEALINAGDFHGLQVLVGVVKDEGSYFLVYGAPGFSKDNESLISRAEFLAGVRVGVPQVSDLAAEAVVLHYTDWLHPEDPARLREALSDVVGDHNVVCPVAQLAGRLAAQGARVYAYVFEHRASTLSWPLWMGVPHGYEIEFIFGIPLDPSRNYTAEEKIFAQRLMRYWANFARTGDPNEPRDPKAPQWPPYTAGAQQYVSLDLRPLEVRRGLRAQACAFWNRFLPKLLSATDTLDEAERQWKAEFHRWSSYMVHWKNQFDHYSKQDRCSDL
COc1cccc(CN2CCC(CCC(=O)c3ccc4c(c3)CCN4)CC2)c1 gave an IC50 of 2680 nM.
In the case of Fc1ccc(N(Cc2ccc3c(c2)OCO3)C(=S)Nc2cccc(C(F)(F)F)c2)cc1, the IC50 is reported as 8000 nM.
CN(C)C(=O)Oc1cccc(-c2cn3c(Cl)cccc3[n+]2C)c1 gave an IC50 of 12600 nM.
O=C1Cc2ccccc2CN1CCC1CCN(Cc2ccccc2)CC1 showed an IC50 of 17 nM.
With COC(=O)Nc1ccc2n(c1)cc(-c1ccccc1)[n+]2C the IC50 was 50000 nM.
CCCCCCNC(=O)Oc1ccc2c(c1)[C@]1(C)CCN(CCC)[C@@H]1C2 was tested, and the IC50 was 62 nM.
For CC(=O)N(CCC1CCN(Cc2ccccc2)CC1)c1ccncc1, the IC50 was 108 nM.
Clc1ccc2c(NCCCCCCNc3c4c(nc5cc(Cl)ccc35)CCCC4)c3c(nc2c1)CCCC3 gave an IC50 of 0.6 nM.
With Nc1ccc2c(c1)c(-c1ccccc1)[n+](CCCNCCCNCCCNc1c3c(nc4ccccc14)CCCC3)c1cc(N)ccc21 the IC50 was 1.49 nM.
O=C(CCC1CCN(Cc2ccc(F)cc2)CC1)c1ccc2c(c1)CCN2 showed an IC50 of 89 nM.
CC(=O)N(CCC1CCN(Cc2ccccc2)CC1)c1ccc(F)cc1 was tested, and the IC50 was 205 nM.
CN(C)C(=O)Oc1ccc(-c2cn3ccccc3[n+]2C)cc1 gave an IC50 of 17100 nM.
CCCCCCNC(=O)Oc1cccc(CN(C)CCCCOc2ccc3c(=O)c4ccccc4oc3c2)c1 gave an IC50 of 100 nM.
CC(Cc1ccc(O)cc1)C1CCC(C)C(c2ccc(O)cc2)C1 (stereo not given) showed an IC50 of 620 nM.
Work on CCCCCCNC(=O)Oc1cccc(CN(C)CCCCCOc2ccc3c(=O)c4ccccc4oc3c2)c1 yielded an IC50 of 100 nM.
Molecule c1ccc(CN2CCC(CNc3ccc(-c4ccccc4)nn3)CC2)cc1 has an IC50 of 56000 nM.
Molecule Fc1ccc2c(NCCCCCCCNc3c4c(nc5cc(F)ccc35)CCCC4)c3c(nc2c1)CCCC3 has an IC50 of 0.6 nM.
Work on Nc1c2c(nc3ccccc13)-c1ccccc1CCC2 yielded an IC50 of 166000 nM.
O=C(Nc1ccc2c(c1)C(=O)N(CCC1CCN(Cc3ccccc3)CC1)C2=O)c1ccccc1 was tested, and the IC50 was 1.2 nM.
NCCCCCCCCCCNc1c2c(nc3ccccc13)CCCC2 was tested, and the IC50 was 147 nM.
In the case of O=C(Nc1ccccc1)c1ccc2c(c1)C(=O)N(CCC1CCN(Cc3ccccc3)CC1)C2=O, the IC50 is reported as 2.2 nM.
CCCCNC(=O)Oc1ccc2c(c1)[C@]1(C)CCN(CC)[C@@H]1C2 showed an IC50 of 90 nM.
Molecule COc1ccccc1CN(C)CCCN(C)CCCNCCC[n+]1c(-c2ccccc2)c2cc(N)ccc2c2ccc(N)cc21 has an IC50 of 894 nM.
O=C(c1ccc(F)cc1)N(CCC1CCN(Cc2ccccc2)CC1)c1ccccc1 showed an IC50 of 18 nM.
CC(=O)Nc1cccc2n1cc(-c1cccc(OC(=O)N(C)C)c1)[n+]2C showed an IC50 of 2500 nM.
Molecule CCCN1CCCCc2ccc(C(=O)CCC3CCN(Cc4ccccc4)CC3)cc21 has an IC50 of 1330 nM.
Work on CN(CCCCCNc1ccc(-c2ccccc2)nn1)Cc1ccccc1 yielded an IC50 of 740 nM.
Molecule Nc1c2c(nc3ccccc13)-c1cc(Br)ccc1CC2 has an IC50 of 144000 nM.
O=C(CCC1CCN(Cc2ccccc2Cl)CC1)c1ccc2c(c1)CCN2 showed an IC50 of 76 nM.
For O=C(Cc1c[nH]c2ccccc12)NCCCCCCCNc1c2c(nc3cc(Cl)ccc13)CCCC2, the IC50 was 0.2 nM.
For Nc1cc(-c2ccccc2)nnc1NCCN1CCOCC1, the IC50 was 270000 nM.
CN(CCOCCNC(=S)NC(=O)c1ccccc1)Cc1ccccc1 showed an IC50 of 120 nM.
Cc1cc(-c2ccc(Cl)cc2)nnc1NCCN1CCCCC1 showed an IC50 of 1300 nM.
For Cc1nc(N)ncc1-c1nnnn1-c1ccc(-c2ccccc2)cc1, the IC50 was 27000 nM.
O=C1c2ccccc2CN1CCC1CCN(Cc2ccccc2)CC1 gave an IC50 of 98 nM.
Molecule Cc1cccc(CN2CCC(CCC(=O)c3ccc4c(c3)NCCCC4)CC2)c1 has an IC50 of 224 nM.
CCN1CCCC1CNc1ccc(-c2ccccc2)nn1 (stereo not given) gave an IC50 of 62000 nM.
With O=C(c1ccncc1)N(CCC1CCN(Cc2ccccc2)CC1)c1ccccc1 the IC50 was 64 nM.
Work on O=C(NCCCCCCCNc1c2c(nc3cc(Cl)ccc13)CCCC2)c1n[nH]c2ccccc12 yielded an IC50 of 95 nM.
CN(C)C(=O)Oc1cccc(-c2cn3c(C(F)(F)F)cccc3[n+]2C)c1 was tested, and the IC50 was 33600 nM.
NCCCCCCCNc1c2c(nc3ccccc13)CCCC2 showed an IC50 of 319 nM.
In the case of COc1ccc2c(c1)CCc1c-2nc2ccccc2c1N, the IC50 is reported as 47000 nM.
CC1=C(C)c2nc3ccccc3c(N)c2C1 gave an IC50 of 3500 nM.
CCCCCCCNC(=O)Oc1ccc2c(c1)[C@]1(C)CCN(CC)[C@@H]1C2 was tested, and the IC50 was 58 nM.
In the case of N#Cc1ccc2[nH]cc(CCC(=O)NCCCCCCNc3c4c(nc5cc(Cl)ccc35)CCCC4)c2c1, the IC50 is reported as 0.7 nM.
With c1ccc(CN2CCC(CCN3CCc4ccccc4C3)CC2)cc1 the IC50 was 1600 nM.
Molecule O=C(CCC1CCN(Cc2cccc(F)c2)CC1)c1ccc2c(c1)CCN2 has an IC50 of 16 nM.
Work on c1ccc2c(NCCCCCCCCNc3ccncc3)c3c(nc2c1)CCCC3 yielded an IC50 of 13.6 nM.
Molecule O=C(CCC1CCN(Cc2ccccc2)CC1)c1ccc2c(c1)OCO2 has an IC50 of 30 nM.
Work on c1ccc2c(NCCCCCCCNc3c4c(nc5ccccc35)CCCC4)ccnc2c1 yielded an IC50 of 10.1 nM.
Cc1ccc2c(Nc3ccccc3)c3c(nc2c1)CCCC3 gave an IC50 of 750 nM.
CN(C)c1ccc(-c2c3cc(O)c(=O)cc-3oc3cc(O)c(O)cc23)cc1 was tested, and the IC50 was 22000 nM.
O=C(c1ccc([N+](=O)[O-])cc1)N(CCC1CCN(Cc2ccccc2)CC1)c1ccccc1 was tested, and the IC50 was 5.4 nM.
CNC(=O)Oc1cccc(CN(C)CCCOc2ccc3c(c2)O/C(=C\c2cc(O)c(O)c(O)c2)C3=O)c1 was tested, and the IC50 was 2.99 nM.
With COc1ccc2c(c1OC)C(=O)CC2CCC1CCN(Cc2ccccc2)CC1 (stereo not given) the IC50 was 8 nM.
Molecule c1ccc2c(NCCCCCCCCNc3c4c(nc5ccccc35)CCCC4)ccnc2c1 has an IC50 of 8.8 nM.
CN(C)C(=O)Oc1ccc(-c2cn3c(C(F)(F)F)cccc3[n+]2C)cc1 was tested, and the IC50 was 10000 nM.
With O=c1c2ccccc2ncn1CCC1CCN(Cc2ccccc2)CC1 the IC50 was 1200 nM.
For O=C1c2ccc([N+](=O)[O-])cc2C(=O)N1CCC1CCN(Cc2ccc(Cl)cc2)CC1, the IC50 was 240 nM.
COc1cc2c(cc1OC)CC(CC1CCN(c3ccccc3)CC1)=C2 showed an IC50 of 4400 nM.
CCCCCCNC(=O)Oc1cccc(CN(C)CCCOc2ccc3c(=O)cc(-c4ccccc4)oc3c2)c1 showed an IC50 of 68 nM.
With O=C(CC1S/C(=N/c2ccc(C3CCCCC3)cc2)NC1=O)Nc1ccc(OC(F)(F)F)cc1 (stereo not given) the IC50 was 2900 nM.
Molecule O=C1c2ccccc2NCN1CCC1CCN(Cc2ccccc2)CC1 has an IC50 of 800 nM.
With CCCCCCCNC(=O)Oc1ccc2c(c1)[C@]1(C)CCN(Cc3ccccc3)[C@@H]1C2 the IC50 was 506 nM.
CN(C)C(=O)Oc1ccc(-c2cn3c(NC(=O)c4ccccc4)cccc3[n+]2C)cc1 gave an IC50 of 200 nM.
CN(CCOCCNC(=O)Nc1ccc([N+](=O)[O-])cc1)Cc1ccccc1 showed an IC50 of 2300 nM.
Work on CN(C)CCCCCCCCNc1c2c(nc3ccccc13)CCCC2 yielded an IC50 of 47 nM.
In the case of CCCc1cc(N2CCC=N2)ccc1C(=O)ON=C(N)c1ccc(C(F)(F)F)cc1, the IC50 is reported as 13000 nM.
For Cc1c(/N=C/c2ccccc2O)cc2c(c1N)C(C)(C)CC2(C)C, the IC50 was 16000 nM.
CCCCNC(=O)Oc1ccc2c(c1)C1CCN(CC)C1C2 (stereo not given) showed an IC50 of 1080 nM.
Molecule N#Cc1cc(-c2ccccc2)nnc1NCCN1CCOCC1 [BAZINAPRINE] has an IC50 of 100000 nM.
O=C(CCC1CCN(Cc2cccc(Cl)c2)CC1)c1ccc2c(c1)NCCCC2 was tested, and the IC50 was 333 nM.
Work on c1ccc(-c2cnc(NCN3CCCCC3)nc2)cc1 yielded an IC50 of 100000 nM.
O=C1c2ccccc2CC1CC1CCN(c2ccccc2)CC1 (stereo not given) showed an IC50 of 150 nM.
Molecule c1ccc(CN2CCC(Nc3ccc(-c4ccccc4)nn3)CC2)cc1 has an IC50 of 65000 nM.
For Cc1cccc(CN2CCC(CCC(=O)c3ccc4c(c3)CCN4)CC2)c1, the IC50 was 50 nM.
Cc1cccc2n1cc(-c1cccc(OC(=O)N(C)C)c1)[n+]2C showed an IC50 of 24000 nM.
In the case of O=C(CCC1CCN(Cc2ccccc2)CC1)c1ccc2c(c1)CCCN2c1ccccc1, the IC50 is reported as 54 nM.
For CN(CCCNC(=O)CCc1c[nH]c2ccccc12)CCCNc1c2c(nc3cc(Cl)ccc13)CCCC2, the IC50 was 2.9 nM.
Molecule O=C1c2ccccc2CCCC1CC1CCN(c2ccccc2)CC1 (stereo not given) has an IC50 of 15000 nM.
Work on COc1ccc(NC(=S)NCCOCCN(C)Cc2cccc([N+](=O)[O-])c2)cc1OC yielded an IC50 of 1500 nM.
With Cc1cc(-c2ccccc2)nnc1NCCN1CCOCC1 [MINAPRINE] the IC50 was 85000 nM.
COC(=O)Nc1cccc2n1cc(-c1ccc(OC(=O)N(C)C)cc1)[n+]2C gave an IC50 of 1100 nM.
Cc1cc(-c2ccc(Cl)cc2)nnc1NCCN1CCOCC1 showed an IC50 of 34000 nM.
c1ccc(-c2ccc(NCCCCN3CCc4ccccc4C3)nn2)cc1 was tested, and the IC50 was 15000 nM.
Molecule CN(CCCCNc1ccc(-c2ccccc2)nn1)Cc1ccccc1 has an IC50 of 11000 nM.
Molecule CCCCCCNC(=O)Oc1cccc(CN(C)CCCOc2ccc3c(=O)ccoc3c2)c1 has an IC50 of 21 nM.
Molecule CN(C)CCCCCCCCCCCCNc1c2c(nc3ccccc13)CCCC2 has an IC50 of 264 nM.
Molecule O=[N+]([O-])c1ccc2nc3c(c(Nc4ccccc4)c2c1)CCCC3 has an IC50 of 1600 nM.
CCN1CC[C@@]2(C)c3cc(OC(=O)NC)ccc3C[C@@H]12 gave an IC50 of 38 nM.
For COc1cccc2n1cc(-c1ccc(OC(=O)N(C)C)cc1)[n+]2C, the IC50 was 8100 nM.
In the case of CCc1cc(=NCCC2CCN(Cc3ccccc3)CC2)[nH]nc1-c1ccccc1, the IC50 is reported as 27 nM.
CCCCC1=C(C)Cc2c1nc1ccccc1c2N showed an IC50 of 25000 nM.
CCCCCCNC(=O)Oc1ccc2c(c1)[C@]1(C)CCN(CC)[C@@H]1C2 gave an IC50 of 45 nM.
Work on NCCCCCCCCCNc1c2c(nc3ccccc13)CCCC2 yielded an IC50 of 131 nM.
COc1ccc(CN2CCC(CCN3C(=O)c4ccc([N+](=O)[O-])cc4C3=O)CC2)cc1 gave an IC50 of 440 nM.
O=C(NCCCCCCCNc1c2c(nc3cc(Cl)ccc13)CCCC2)c1c[nH]c2ccccc12 gave an IC50 of 36 nM.
In the case of O=C(OC1Cc2c(O)cc(O)cc2OC1c1ccc(O)c(O)c1)c1cc(O)c(O)c(O)c1 (stereo not given), the IC50 is reported as 28000 nM.
Molecule CNC(=O)Nc1cccc2n1cc(-c1ccc(OC(=O)N(C)C)cc1)[n+]2C has an IC50 of 1350 nM.
c1ccc(-c2nnc(NCN3CCCCC3)s2)cc1 showed an IC50 of 54000 nM.
For O=C(CCCc1c[nH]c2ccccc12)NCCCCCCNc1c2c(nc3cc(Cl)ccc13)CCCC2, the IC50 was 0.5 nM.
Molecule O=C(CCC1CCN(Cc2ccc(Cl)cc2)CC1)c1ccc2c(c1)CCN2 has an IC50 of 6360 nM.
In the case of CCCCC1(O)c2nc3ccccc3c(N)c2CC1C (stereo not given), the IC50 is reported as 91000 nM.
O=C1c2ccccc2C(=O)N1CCC1CCN(Cc2ccccc2)CC1 showed an IC50 of 80 nM.
With O=C(CCCc1c[nH]c2ccccc12)NCCCCCNc1c2c(nc3cc(Cl)ccc13)CCCC2 the IC50 was 0.3 nM.
O=C(CCOCCc1c[nH]c2ccccc12)NCCCCCNc1c2c(nc3cc(Cl)ccc13)CCCC2 showed an IC50 of 1.5 nM.
For COc1cccc(CN2CCC(CCC(=O)c3ccc4c(c3)NCCCC4)CC2)c1, the IC50 was 847 nM.
c1ccc(CN2CCC(CNc3n[nH]c4ccccc34)CC2)cc1 was tested, and the IC50 was 120 nM.
Fc1ccc2c(NCCCCCCCCNc3c4c(nc5cc(F)ccc35)CCCC4)c3c(nc2c1)CCCC3 was tested, and the IC50 was 0.7 nM.
Work on O=C(CCc1c[nH]c2ccccc12)NCCCCCCCNc1c2c(nc3ccccc13)CCCC2 yielded an IC50 of 0.06 nM.
